Structures are written as SMILES.

In one assay the target is Adenosine A2A (Homo sapiens, UniProt P29274). As to the kind of experiment: Cerep selectivity profiling, receptor antagonism. The class given is biochemical. As for the experimental part: (§1) The pharmacological specificity of EUC-001 was assessed using the commercially available selectivity profiling services provided by Cerep (Celle l’Evescault, France). Initially, the activity of EUC-001, at a fixed concentration of 10 μM, was evaluated in a range of assays to assess pharmacological selectivity relative to other cell-surface receptors, ion channels and transport proteins. Where any significant binding was detected, further assays were performed to quantify potential non-selective activity. […] In terms of this non-specific activity, the IC50s are approximately 3.6 log units greater than that required for NK1R antagonism.
Adenosine A2A, sequence (P29274 whole entry): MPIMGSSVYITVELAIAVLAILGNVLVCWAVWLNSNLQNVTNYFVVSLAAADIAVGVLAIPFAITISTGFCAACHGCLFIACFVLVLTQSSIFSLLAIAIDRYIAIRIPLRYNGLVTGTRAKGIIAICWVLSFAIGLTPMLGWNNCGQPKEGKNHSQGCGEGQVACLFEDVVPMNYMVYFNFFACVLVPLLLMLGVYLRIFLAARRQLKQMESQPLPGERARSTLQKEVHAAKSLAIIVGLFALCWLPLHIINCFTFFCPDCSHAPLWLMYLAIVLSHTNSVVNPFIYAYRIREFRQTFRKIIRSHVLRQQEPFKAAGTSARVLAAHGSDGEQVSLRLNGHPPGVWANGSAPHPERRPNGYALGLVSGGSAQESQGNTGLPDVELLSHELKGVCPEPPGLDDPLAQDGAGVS
(§2) The pharmacological specificity of EUC-001 was assessed using the commercially available selectivity profiling services provided by Cerep (Celle l’Evescault, France). For initial screens, the binding of EUC-001 (synthesized by Hoffmann-La Roche, Basel, Switzerland) at a fixed concentration of 10 μM was evaluated in a range of assays to assess pharmacological selectivity relative to other cell-surface receptors, ion channels and transport proteins.
(§3) For agonist activity, results are expressed as a percentage of the control agonist response induced by the selective NK1R agonist [Sar^9, Met(O2)^11]-substance P (100 nM) for a range of concentrations of EUC-001. Antagonist activity is expressed as a percentage change in the response induced by 3 nM [Sar^9, Met(O2)^11]-SP (R&D systems) across a range of concentrations of EUC-001. The EC50 values (concentration producing a half-maximal specific response) and IC50 values (concentration causing a half-maximal inhibition of the control specific agonist response) were determined by non-linear regression analysis of the concentration–response curves generated with mean replicate values using Hill equation curve fitting (Y = D + [(A − D)/(1 + (C/C50)nH)], where Y = specific response, D = minimum specific response, A = maximum specific response, C = compound concentration, and C50 = EC50 or IC50, and nH = slope factor). This analysis was performed using custom software developed at Cerep and validated by comparison with data generated by the commercial software SigmaPlot® 4.0 for Windows® (SPSS Inc., Chicago, IL, USA). For the antagonists, the apparent dissociation constants (KB) were calculated using the modified Cheng Prusoff equation (KB = IC50/(1 + (A/EC50A)), where A = concentration of reference agonist in the assay, and EC50A = EC50 value of the reference agonist).

A further assay deals with T1, Adenosine A3 (Homo sapiens, UniProt P0DMS8).
T1 sequence (P0DMS8 1-318): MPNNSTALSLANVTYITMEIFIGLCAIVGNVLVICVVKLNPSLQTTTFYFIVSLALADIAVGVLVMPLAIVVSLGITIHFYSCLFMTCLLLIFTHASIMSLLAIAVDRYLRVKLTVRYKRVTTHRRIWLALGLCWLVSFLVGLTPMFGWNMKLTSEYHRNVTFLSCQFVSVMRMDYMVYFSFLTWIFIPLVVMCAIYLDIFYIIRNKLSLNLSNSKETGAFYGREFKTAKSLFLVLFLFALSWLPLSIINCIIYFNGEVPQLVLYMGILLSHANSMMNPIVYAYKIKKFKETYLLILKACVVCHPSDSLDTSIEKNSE
In words: Cerep selectivity profiling, receptor antagonism. The class given is biochemical. The procedure: as §1, §2, §3

A further assay concerns the target Dopamine D1 (Homo sapiens, UniProt P21728). In words: Cerep selectivity profiling, receptor antagonism. It counts as biochemical. As for the experimental part:
as §1, §2, §3

Another assay addresses Melanocortin MC4 (Homo sapiens, UniProt P32245). As to the kind of experiment: Cerep selectivity profiling, receptor antagonism. The class given is biochemical. The procedure:
as §1, §2, §3

Assay [1] deals with T2, Muscarinic cholinergic M2 (Homo sapiens, UniProt P08172).
T2 sequence (P08172 1-466): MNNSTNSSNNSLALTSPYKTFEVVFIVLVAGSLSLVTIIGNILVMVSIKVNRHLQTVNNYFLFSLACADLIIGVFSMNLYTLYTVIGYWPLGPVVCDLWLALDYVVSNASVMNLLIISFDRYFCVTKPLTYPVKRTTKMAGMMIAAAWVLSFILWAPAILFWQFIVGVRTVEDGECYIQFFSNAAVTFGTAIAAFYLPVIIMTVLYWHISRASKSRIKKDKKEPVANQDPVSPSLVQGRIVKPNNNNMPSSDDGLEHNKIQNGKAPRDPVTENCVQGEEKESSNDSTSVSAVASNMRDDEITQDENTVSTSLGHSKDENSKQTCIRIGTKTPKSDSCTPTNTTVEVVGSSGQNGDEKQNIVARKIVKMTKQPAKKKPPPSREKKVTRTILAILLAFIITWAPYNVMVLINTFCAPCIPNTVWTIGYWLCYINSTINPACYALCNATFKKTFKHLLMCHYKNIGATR
As to the kind of experiment: Cerep selectivity profiling, receptor antagonism. The class given is biochemical. The procedure: as §1, §2, §3

The target of assay [2] is Muscarinic cholinergic M3 (Homo sapiens, UniProt P20309). As to the kind of experiment: Cerep selectivity profiling, receptor antagonism. The class given is biochemical. As for the experimental part:
as §1, §2, §3

A further assay deals with Serotonin 5-HT1B (Homo sapiens, UniProt P28222). In words: Cerep selectivity profiling, receptor antagonism. It counts as biochemical. To be noted: Serotonin 5-HT1B antagonism. As for the experimental part: as §1, §2, §3
Serotonin 5-HT1B, sequence (P28222 whole entry): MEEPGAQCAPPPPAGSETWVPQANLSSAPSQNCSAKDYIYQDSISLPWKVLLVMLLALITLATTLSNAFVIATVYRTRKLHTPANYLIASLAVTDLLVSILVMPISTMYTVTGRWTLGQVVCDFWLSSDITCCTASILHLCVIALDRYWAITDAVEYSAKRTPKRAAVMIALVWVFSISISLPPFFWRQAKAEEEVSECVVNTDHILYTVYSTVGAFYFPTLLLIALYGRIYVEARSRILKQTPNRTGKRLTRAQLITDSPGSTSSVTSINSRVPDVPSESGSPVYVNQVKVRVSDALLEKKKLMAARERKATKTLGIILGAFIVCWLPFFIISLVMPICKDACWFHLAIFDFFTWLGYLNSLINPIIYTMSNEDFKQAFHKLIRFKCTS
A further assay addresses Serotonin 5-HT2A (Homo sapiens, UniProt P28223). In words: Cerep selectivity profiling, receptor antagonism. It counts as biochemical. Particulars: Serotonin 5-HT2A antagonism. The procedure:
as §1, §2, §3

A further assay concerns the target Serotonin 5-HT5A (Homo sapiens, UniProt P47898). In words: Cerep selectivity profiling, receptor antagonism. It counts as biochemical. To be noted: Serotonin 5-HT5A antagonism. As for the experimental part:
as §1, §2, §3

Another assay relates to rodent model of TBI. In words: Motor function after TBI, rotarod test. It counts as in vivo, Sprague Dawley rats. To be noted: rat TBI, 10 mg/kg 30 min post-injury, 10 days. In general terms: In the rotarod test animals must keep their balance on a rotating rod.

Dopamine D1, sequence (P21728 whole entry): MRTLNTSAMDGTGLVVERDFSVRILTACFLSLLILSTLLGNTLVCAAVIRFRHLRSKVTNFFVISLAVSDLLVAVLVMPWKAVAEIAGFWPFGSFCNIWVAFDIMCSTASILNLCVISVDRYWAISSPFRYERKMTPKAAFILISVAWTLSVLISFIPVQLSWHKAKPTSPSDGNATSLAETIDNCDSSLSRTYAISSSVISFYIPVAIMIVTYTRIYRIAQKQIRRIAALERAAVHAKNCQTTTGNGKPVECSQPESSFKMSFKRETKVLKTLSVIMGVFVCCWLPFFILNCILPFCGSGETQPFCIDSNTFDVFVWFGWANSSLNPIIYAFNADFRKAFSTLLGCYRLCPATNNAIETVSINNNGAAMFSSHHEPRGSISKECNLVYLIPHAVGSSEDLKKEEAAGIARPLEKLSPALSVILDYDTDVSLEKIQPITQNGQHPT
Muscarinic cholinergic M3, sequence (P20309 whole entry): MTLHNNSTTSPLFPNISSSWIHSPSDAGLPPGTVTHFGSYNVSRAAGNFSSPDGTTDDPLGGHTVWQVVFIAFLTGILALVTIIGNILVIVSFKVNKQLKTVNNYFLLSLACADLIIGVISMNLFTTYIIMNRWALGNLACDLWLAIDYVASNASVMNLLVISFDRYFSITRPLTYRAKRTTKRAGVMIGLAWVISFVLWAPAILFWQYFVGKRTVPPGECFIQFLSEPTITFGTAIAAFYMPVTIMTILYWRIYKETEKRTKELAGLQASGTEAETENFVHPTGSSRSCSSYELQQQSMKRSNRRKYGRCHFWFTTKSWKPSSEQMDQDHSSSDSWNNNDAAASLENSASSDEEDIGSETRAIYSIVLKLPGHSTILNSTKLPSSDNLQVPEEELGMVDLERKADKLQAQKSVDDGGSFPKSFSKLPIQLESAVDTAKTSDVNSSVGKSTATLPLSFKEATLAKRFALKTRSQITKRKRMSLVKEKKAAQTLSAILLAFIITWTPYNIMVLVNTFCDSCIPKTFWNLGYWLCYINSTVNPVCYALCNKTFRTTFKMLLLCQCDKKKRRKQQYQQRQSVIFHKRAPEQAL
Serotonin 5-HT2A, sequence (P28223 whole entry): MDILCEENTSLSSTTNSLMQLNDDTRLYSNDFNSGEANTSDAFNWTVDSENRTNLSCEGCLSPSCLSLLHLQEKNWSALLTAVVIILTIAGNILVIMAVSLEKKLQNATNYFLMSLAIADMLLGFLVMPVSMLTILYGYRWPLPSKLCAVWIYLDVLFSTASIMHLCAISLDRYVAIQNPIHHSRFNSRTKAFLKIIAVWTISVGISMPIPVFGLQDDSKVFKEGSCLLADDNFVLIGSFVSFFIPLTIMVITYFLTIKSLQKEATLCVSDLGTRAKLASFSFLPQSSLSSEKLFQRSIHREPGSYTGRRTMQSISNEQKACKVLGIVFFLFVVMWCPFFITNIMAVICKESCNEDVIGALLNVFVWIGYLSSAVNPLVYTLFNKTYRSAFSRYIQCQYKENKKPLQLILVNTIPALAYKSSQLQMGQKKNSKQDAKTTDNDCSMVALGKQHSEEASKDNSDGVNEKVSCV
Melanocortin MC4, sequence (P32245 whole entry): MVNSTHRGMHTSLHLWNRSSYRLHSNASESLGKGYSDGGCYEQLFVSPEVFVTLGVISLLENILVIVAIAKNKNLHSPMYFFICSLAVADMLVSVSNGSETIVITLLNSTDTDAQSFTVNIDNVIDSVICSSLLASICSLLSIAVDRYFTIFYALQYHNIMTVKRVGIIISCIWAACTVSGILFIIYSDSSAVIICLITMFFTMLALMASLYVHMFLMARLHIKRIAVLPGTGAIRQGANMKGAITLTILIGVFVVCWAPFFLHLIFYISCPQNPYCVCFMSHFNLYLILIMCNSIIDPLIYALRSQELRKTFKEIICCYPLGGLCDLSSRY
Serotonin 5-HT5A, sequence (P47898 whole entry): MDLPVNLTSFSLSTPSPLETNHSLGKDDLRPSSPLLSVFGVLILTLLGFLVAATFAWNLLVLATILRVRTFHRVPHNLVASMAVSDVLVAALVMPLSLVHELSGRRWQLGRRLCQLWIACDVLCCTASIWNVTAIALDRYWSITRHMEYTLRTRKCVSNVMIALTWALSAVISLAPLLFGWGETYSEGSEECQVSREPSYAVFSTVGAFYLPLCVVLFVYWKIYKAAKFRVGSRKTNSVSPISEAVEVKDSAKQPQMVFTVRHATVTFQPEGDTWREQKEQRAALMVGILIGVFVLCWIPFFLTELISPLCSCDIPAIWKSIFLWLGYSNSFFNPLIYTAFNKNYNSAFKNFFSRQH
Source text for rodent model of TBI: The maximum duration of the task was 120 s.
Injury was induced in halothane-anesthetized (ProVet) male Sprague Dawley rats (400 ± 20 g) using acceleration-induced impact TBI [29, 93]. This model involves impacting a 10 mm diameter, 3 mm thick stainless steel disc fixed centrally to the exposed skull between the lambda and bregma with an accelerating impactor. The impactor was a 450 g brass weight dropped from a height of 2 m. […] All animals were fed and watered ad libitum before the induction of injury. During both surgery and the immediate recovery phase, rat rectal temperature was maintained using a thermostatically controlled heating pad. Immediately after injury, animals were manually ventilated until stable respiration was restored, usually in <5 min. After injury, all wounds were sutured. Blood pressure was monitored, both before and after injury, using a femoral arterial line.
Motor and cognitive outcomes in animals (n = 6 per group) were assessed using the rotarod and Barnes maze, respectively, as described in detail elsewhere [64]. The rotarod consists of a motorized rotating assembly of 18 rods (1 mm in diameter) upon which the animals were placed. The rotational speed of the device was increased from 0 to 30 r.p.m. and the duration (in seconds) when the animals either completed the task, fell from the rods, or gripped the rods and spun for two consecutive revolutions rather than walking actively was recorded as the rotarod score. […] After activating the bright lights and aversive auditory stimulus, the latency (in seconds) for the animal to locate and enter the escape tunnel was recorded. All animals were pretrained on both functional outcome tests twice per day over 5 days before injury to establish a normal, uninjured baseline.

Turning to `Cc1ccccc1-c1cc(N2CCN(C)CC2)ncc1C(=O)N(C)Cc1cc(C(F)(F)F)cc(C(F)(F)F)c1` [EUC-001, N-(3,5-Bis-trifluoromethyl-benzyl)-N-methyl-6-(4-methyl-piperazine-1-yl)-4-o-tolyl-nicotinamide], the concentration for half-maximal inhibition (IC50) turned out to be 30 µM on Adenosine A2A; 16 µM on Dopamine D1; 13 µM on Melanocortin MC4; 30 µM in assay [1]; 3.3 µM in assay [2]; 6.1 µM at Serotonin 5-HT1B. Also, the results for the half-inhibitory concentration (IC50) on Serotonin 5-HT2A and at Serotonin 5-HT5A were 15 µM and 4 µM, respectively. Besides, the “IC50 (M)” value on Adenosine A3 was “Not calculable”. Also, the “Motor function, rotarod score” value with rodent model of TBI was “much smaller decline in motor function”.

The IC50 is the concentration at which inhibition is half-maximal.
